According to patent US4575509A, “Water-soluble formulations of m-AMSA with pyroglutamic acid” (Bristol-Myers Company, priority 1984, dated 1986):
Counter-ions that a name gives are not always drawn. Like-named read-outs stand apart in the source and are kept apart here.

How the values were obtained:
[1] = physchem; assay type: physicochemical; details: water, found by the present inventors, read-out: aqueous solubility
[2] = literature references / prior art, cited from earlier work
[3] = Solubility test in sterile water for injection (saturated filtrate, HPLC, m-AMSA base content); assay type: physicochemical; details: 0.22μ filtrate, HPLC assay within one hour after reconstitution
Procedure: To determine the relative solubilities of the pyroglutamate salts and compositions of the present invention and the prior art m-AMSA methanesulfonate salt, the following solubility test was carried out.
The following formulations were tested: […]
The formulations were prepared as follows: […]
(1) The m-AMSA methanesulfonate salt was prepared by slurrying 1 g of m-AMSA base in 125 ml of acetone for 20 minutes. The resulting near solution was vacuum filtered to remove undissolved solids. The solids remaining in the filter were washed with 10 ml of acetone and the wash solution was added to the original filtrate. To the above solution of m-AMSA base there was added with rapid stirring 0.24 ml of methanesulfonic acid over a three minute interval. Crystals formed and the mixture was stirred five additional minutes. The crystals were then vacuum filtered, washed with two 20 ml portions of acetone and vacuum dried at 50° C. for 24 hours to give 1.18 g of m-AMSA methanesulfonate (1:1) salt.
(2) The composition containing m-AMSA base and methanesulfonic acid (1:2 ratio) was prepared by adding 1 equivalent of methanesulfonic acid to the 1:1 m-AMSA methanesulfonate salt prepared above.
(3) The 1:1 m-AMSA pyroglutamate salt was prepared as described in Example 1.
(4) The 1:2 m-AMSA pyroglutamate salt was prepared as described in Example 2.
To carry out the solubility test, accurately weighed amounts of the above-described formulations were added into accurately measure amounts of sterile water for injection and the mixture was shaken by Vortex® mixer for 5 minutes to yield a complete solution. The procedure was continued until no more material dissolved in the solution. The saturated solutions were then passed through a 0.22μ Millipore® filter. The resultant clear filtrates were sampled and assayed via HPLC assay within one hour after reconstitution. Solubility was measured as the m-AMSA base content in the filtrate.

[4] = initial results; cited from earlier work
[5] = tested on: animal tumor systems; details: Cain et al. 1974; cited from earlier work
[6] = penicillin G, ampicillin, cephalothin etc.; U.S. Pat. No. 3,920,814; cited from earlier work
[7] = physchem; assay type: physicochemical; details: water
Procedure: DL-Pyroglutamic acid (130 mg) was dispersed in 20 ml of acetone to form a solution. To this solution there was added 400 mg of m-AMSA free base. The mixture was stirred and 10 ml of methyl alcohol added drop by drop. Upon agitation, a yellow solid gradually precipitated. The precipitate was collected, washed twice with acetone and dried in vacuo to give the title salt having a melting point of 156°-158° C. and an aqueous solubility at room temperature of about 10 mg/ml.
m-AMSA base (400 mg) was suspended in 30 ml of dried acetone. With gentle stirring, a solution was obtained by gradually adding a solution of 260 mg of DL-pyroglutamic acid in 15 ml of methanol to the above suspension. Two 10 ml portions of dried methanol were added to the solution to precipitate the dipyroglutamate salt. The salt was isolated by filtration, washed with methanol and dried in a vacuum dessicator. The yield of dipyroglutamate salt was about 600 mg; mp 145°-148° C.

In the case of `COc1cc(NS(C)(=O)=O)ccc1Nc1c2ccccc2nc2ccccc12` [m-AMSA methanesulfonate salt (1:1), m-AMSA methanesulfonate salt], the solubility [1] is given as about 90 µg/mL, the “solubility in water (words)” value ([2]; listed as monomethanesulfonate salt of m-AMSA, methanesulfonate salt) is given as “sufficiently soluble for experimental small animal (mice) antitumor studies” and the “solubility in water (words)” value ([2]; listed as monomethanesulfonate, methanesulfonate salt) is given as “insufficiently water-soluble for practical dosage forms”. For the same molecule, the “solubility in water (words)” value ([2]; methanesulfonate salt) was “only slightly soluble in water” and the “Solubility (mg/ml m-AMSA base)” value ([3]; methanesulfonate salt) was 0.090 mg/ml m-AMSA base.
In the case of `COc1cc(NS(C)(=O)=O)ccc1Nc1c2ccccc2nc2ccccc12` [m-AMSA], the clinical evaluation [4] is listed as “very promising initial results”, the antitumor activity [5] is listed as “significant antitumor activity” and the “solubility in water (words)” value [2] is listed as “very limited solubility in water”.
In the case of `O=C1CCC(C(=O)O)N1` (stereo not drawn) [pyroglutamic acid, 2-pyrrolidone-5-carboxylic acid], the effect on antibiotics [6] is listed as “potentiate the intrinsic activity and blood levels of certain antibiotics”.
For `COc1cc(NS(C)(=O)=O)ccc1Nc1c2ccccc2nc2ccccc12` [Example 1, m-AMSA Mono DL-Pyroglutamate Salt], the solubility ([7]; room temperature, read-out: aqueous solubility) was about 10 mg/mL and the “Solubility (mg/ml m-AMSA base)” value ([3]; listed as m-AMSA pyroglutamate salt (1:1)) was 12.5 mg/ml m-AMSA base.
In the case of `COc1cc(NS(C)(=O)=O)ccc1Nc1c2ccccc2nc2ccccc12` [Example 2, m-AMSA Di DL-Pyroglutamate Salt], the solubility ([7]; m-AMSA base content by HPLC, read-out: aqueous solubility (m-AMSA base content as determined by HPLC)) is reported as 13.1 mg/mL and the “Solubility (mg/ml m-AMSA base)” value ([3]; listed as m-AMSA pyroglutamate salt (1:2)) is reported as 13.1 mg/ml m-AMSA base.
For `COc1cc(NS(C)(=O)=O)ccc1Nc1c2ccccc2nc2ccccc12` [monohydrochloride], the “solubility in water (words)” value [2] is given as “insufficiently water-soluble for practical dosage forms” and the “solubility in water (words)” value ([2]; listed as hydrochloride) is given as “only slightly soluble in water”.
